Data set [1] has as its target Transmembrane protease serine 2 (Homo sapiens, UniProt O15393). The data set can be described thus: Inhibition of TMPRSS2 (106 to 492 residues) (unknown origin) using Boc-QAR-AMC as substrate measured for 20 mins by spectrophotometer analysis.
Data set [2] concerns SARS-CoV-2. Description: Antiviral activity against SARS-CoV-2 B.1.1.7 infected in human Calu-3 cells assessed as inhibition of viral infection preincubated for 1 hr followed by viral infection measured after 48 hrs by Hoechst 33342 staining based analysis. The class given is functional, organism-based. Conditions: Severe acute respiratory syndrome coronavirus 2, B.1.1.7, Calu-3.

The subject of data set [3] is Calu-3. Description: Cytotoxicity against human Calu-3 cells assessed as reduction in cell viability upto 500 uM measured after 48 hrs by Hoechst 33342 staining based analysis. The class given is toxicity. Conditions: calu-3, 48 h.
Data set [4] relates to Calu-3. The data set can be described thus: Cytotoxicity against human Calu-3 cells assessed as reduction in cell viability. The data set is classed as functional.
For data set [5], the system named is SARS-CoV-2. The data set can be described thus: Antiviral activity against SARS-CoV-2 B.1.1.7 infected in human Caco-2 cells assessed as inhibition of viral infection preincubated for 1 hr followed by viral infection measured after 48 hrs by Hoechst 33342 staining based analysis. The class given is functional, organism-based. Conditions: Severe acute respiratory syndrome coronavirus 2, time 49.0 hrs.

Active and inactive are the calls of the source. The rule behind the calls is not given here.

Sequence of Transmembrane protease serine 2 (O15393 1-255 limits assumed): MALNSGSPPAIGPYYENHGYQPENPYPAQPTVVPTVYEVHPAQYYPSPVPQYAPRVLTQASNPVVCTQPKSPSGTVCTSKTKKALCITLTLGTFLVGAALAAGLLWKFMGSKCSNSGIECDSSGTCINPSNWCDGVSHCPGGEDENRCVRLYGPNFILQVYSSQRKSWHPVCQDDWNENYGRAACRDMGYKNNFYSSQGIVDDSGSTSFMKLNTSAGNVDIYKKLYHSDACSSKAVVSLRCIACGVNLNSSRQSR
Sequence of Transmembrane protease serine 2 (O15393 256-492 limits assumed): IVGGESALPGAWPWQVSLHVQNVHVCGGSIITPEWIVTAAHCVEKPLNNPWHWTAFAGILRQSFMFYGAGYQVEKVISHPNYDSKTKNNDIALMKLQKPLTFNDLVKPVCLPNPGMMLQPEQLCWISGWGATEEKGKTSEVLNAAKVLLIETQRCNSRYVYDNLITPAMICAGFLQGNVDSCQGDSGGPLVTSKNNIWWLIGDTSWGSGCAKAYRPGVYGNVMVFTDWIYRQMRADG

As to `Cc1ccc(C(=O)Nc2ccc3c(c2)CCN(C(=N)N)C3)cc1`, in data set [1], half-maximal inhibition (IC50) was put at 4 µM.

For `N=C(N)N1CCc2cc(NC(=O)c3ccc4ccccc4c3)ccc2C1`, in data set [1], the IC50 – broadly, the concentration needed to halve the response being measured – was found to be 4 µM.

Molecule `N=C(N)N1CCc2cc(NC(=O)c3cccc4ccccc34)ccc2C1` came in with an IC50 in data set [1] of 3.4 µM.

For `N=C(N)N1CCc2ccccc2C1` [DEBRISOQUIN], the IC50 in the data set on SARS-CoV-2 [2] amounted to 22 µM; in data set [1] it was 23 µM. In addition, in the data set with Calu-3 [3], the Activity result is given as “Non-Toxic”. Also, in the data set on Calu-3 [4], the 50% cytotoxic concentration (CC50) – broadly, the concentration giving 50% cytotoxicity – is above 500 µM. Besides, the outcome in the data set on SARS-CoV-2 [5] was inactive.

As for `N=C(N)c1ccc(OCCCOc2ccc(C(=N)N)cc2)cc1` [PROPAMIDINE], the CC50 with Calu-3 [4] was above 500 µM.

The values above are taken from ChEMBL document CHEMBL5247670, “TMPRSS2 Inhibitor Discovery Facilitated through an In Silico and Biochemical Screening Platform” (ACS Med Chem Lett, 2023).
